Test results as given in PubChem BioAssay AID1259407 (Chemical Carcinogenesis Research Information System (CCRIS), 2018).
Calls of active or inactive are those of the source. No rule for the calls is given here.

Test system: CCRIS mutagenicity, Ames/micronucleus/aberration tests
Experiment: CCRIS mutagenicity studies
[1] = Test System: AMES SALMONELLA TYPHIMURIUM, Strain/Indicator: TA98, Metabolic Activation: NONE, Method: PREINCUBATION
[2] = Test System: AMES SALMONELLA TYPHIMURIUM, Strain/Indicator: TA98, Metabolic Activation: NONE, Method: STANDARD PLATE
[3] = Test System: AMES SALMONELLA TYPHIMURIUM, Strain/Indicator: TA100, Metabolic Activation: NONE, Method: STANDARD PLATE
[4] = Test System: AMES SALMONELLA TYPHIMURIUM, Strain/Indicator: TA1538, Metabolic Activation: NONE, Method: STANDARD PLATE
[5] = Test System: AMES SALMONELLA TYPHIMURIUM, Strain/Indicator: TA100, Metabolic Activation: NONE, Method: PREINCUBATION

COc1cccc2c1C(=O)c1c(O)c3c(c(O)c1C2=O)C[C@@](O)(C(=O)CO)C[C@@H]3O[C@H]1C[C@H](N)[C@H](OC)[C@H](C)O1
mutagenic call (Test System: AMES SALMONELLA TYPHIMURIUM, Strain/Indicator: GW257, Metabolic Activation: NONE, Method: STANDARD PLATE): active; positive | mutagenic call (Test System: AMES SALMONELLA TYPHIMURIUM, Strain/Indicator: TA97, Metabolic Activation: NONE, Method: STANDARD PLATE): active; positive | mutagenic call [1]: active; positive | mutagenic call [2]: active; positive | mutagenic call [3]: active; positive | mutagenic call (Test System: AMES SALMONELLA TYPHIMURIUM, Strain/Indicator: TA104, Metabolic Activation: NONE, Method: STANDARD PLATE): active; positive | mutagenic call [4]: active; positive | mutagenic call (Test System: AMES SALMONELLA TYPHIMURIUM, Strain/Indicator: TA2637, Metabolic Activation: NONE, Method: STANDARD PLATE): active; positive

COc1cc(-c2ccc(N/N=C3/C(=O)c4c(N)cc(S(=O)(=O)O)cc4C=C3S(=O)(=O)O)c(OC)c2)ccc1N/N=C1/C(=O)c2c(N)cc(S(=O)(=O)O)cc2C=C1S(=O)(=O)O
mutagenic call (End Point: IN VITRO CHROMOSOMAL ABERRATIONS, Test System: CHINESE HAMSTER OVARY CELLS, Metabolic Activation: NONE): inactive; negative | mutagenic call (End Point: IN VITRO CHROMOSOMAL ABERRATIONS, Test System: CHINESE HAMSTER OVARY CELLS, Metabolic Activation: RAT, LIVER, S-9, AROCLOR 1254): inactive; negative | mutagenic call (Test System: AMES SALMONELLA TYPHIMURIUM, Strain/Indicator: SV50, Metabolic Activation: HAMSTER, LIVER, S-9, Method: PREINCUBATION (PRIVAL METHOD)): active; positive | mutagenic call (Test System: AMES SALMONELLA TYPHIMURIUM, Strain/Indicator: SV50, Metabolic Activation: RAT, LIVER, S-9, AROCLOR 1254, Method: PREINCUBATION (PRIVAL METHOD)): active; positive | mutagenic call (Test System: AMES SALMONELLA TYPHIMURIUM, Strain/Indicator: TA98, Metabolic Activation: HAMSTER, LIVER, S-9, AROCLOR 1254 (10%), Method: PREINCUBATION): inactive; negative | mutagenic call (Test System: AMES SALMONELLA TYPHIMURIUM, Strain/Indicator: TA98, Metabolic Activation: HAMSTER, LIVER, S-9, Method: PREINCUBATION (PRIVAL METHOD)): active; positive | mutagenic call [1]: inactive; negative | mutagenic call (Test System: AMES SALMONELLA TYPHIMURIUM, Strain/Indicator: TA98, Metabolic Activation: RAT, LIVER, S-9, AROCLOR 1254 (10%), Method: PREINCUBATION): inactive; negative | mutagenic call (Test System: AMES SALMONELLA TYPHIMURIUM, Strain/Indicator: TA98, Metabolic Activation: RAT, LIVER, S-9, AROCLOR 1254, Method: PREINCUBATION (PRIVAL METHOD)): active; positive | mutagenic call (Test System: AMES SALMONELLA TYPHIMURIUM, Strain/Indicator: TA100, Metabolic Activation: HAMSTER, LIVER, S-9, AROCLOR 1254 (10%), Method: PREINCUBATION): inactive; negative | mutagenic call [5]: inactive; negative | mutagenic call (Test System: AMES SALMONELLA TYPHIMURIUM, Strain/Indicator: TA100, Metabolic Activation: RAT, LIVER, S-9, AROCLOR 1254 (10%), Method: PREINCUBATION): inactive; negative | mutagenic call (Test System: AMES SALMONELLA TYPHIMURIUM, Strain/Indicator: TA1535, Metabolic Activation: HAMSTER, LIVER, S-9, AROCLOR 1254 (10%), Method: PREINCUBATION): inactive; negative | mutagenic call (Test System: AMES SALMONELLA TYPHIMURIUM, Strain/Indicator: TA1535, Metabolic Activation: NONE, Method: PREINCUBATION): inactive; negative | mutagenic call (Test System: AMES SALMONELLA TYPHIMURIUM, Strain/Indicator: TA1535, Metabolic Activation: RAT, LIVER, S-9, AROCLOR 1254 (10%), Method: PREINCUBATION): inactive; negative | mutagenic call (Test System: AMES SALMONELLA TYPHIMURIUM, Strain/Indicator: TA1537, Metabolic Activation: HAMSTER, LIVER, S-9, AROCLOR 1254 (10%), Method: PREINCUBATION): inactive; negative | mutagenic call (Test System: AMES SALMONELLA TYPHIMURIUM, Strain/Indicator: TA1537, Metabolic Activation: NONE, Method: PREINCUBATION): inactive; negative | mutagenic call (Test System: AMES SALMONELLA TYPHIMURIUM, Strain/Indicator: TA1537, Metabolic Activation: RAT, LIVER, S-9, AROCLOR 1254 (10%), Method: PREINCUBATION): inactive; negative | mutagenic call (Test System: AMES SALMONELLA TYPHIMURIUM, Strain/Indicator: TA1538, Metabolic Activation: FLAVIN MONONUCLEOTIDE REDUCTION, HAMSTER, LIVER, S-9, Method: PREINCUBATION): active; positive | mutagenic call (Test System: AMES SALMONELLA TYPHIMURIUM, Strain/Indicator: TA1538, Metabolic Activation: RAT, CECAL BACTERIAL REDUCTION, S-9, AROCLOR 1254, Method: PREINCUBATION): active; positive | mutagenic call (Test System: AMES SALMONELLA TYPHIMURIUM, Strain/Indicator: TA1538, Metabolic Activation: RAT, LIVER, S-9, AROCLOR 1254, Method: PREINCUBATION): active; positive | mutagenic call (Test System: AMES SALMONELLA TYPHIMURIUM, Strain/Indicator: TA1538, Metabolic Activation: RAT, LIVER, S-9, AROCLOR 1254, Method: STANDARD PLATE): active; positive

O=[N+]([O-])C1CCCC1
mutagenic call [5]: inactive; negative | mutagenic call (Test System: AMES SALMONELLA TYPHIMURIUM, Strain/Indicator: TA100, Metabolic Activation: RAT, LIVER, S-9, AROCLOR, Method: PREINCUBATION): active; positive | mutagenic call (Test System: AMES SALMONELLA TYPHIMURIUM, Strain/Indicator: TA102, Metabolic Activation: NONE, Method: PREINCUBATION): inactive; negative | mutagenic call (Test System: AMES SALMONELLA TYPHIMURIUM, Strain/Indicator: TA102, Metabolic Activation: RAT, LIVER, S-9, AROCLOR, Method: PREINCUBATION): inactive; negative | mutagenic call (Test System: UDS RAT HEPATOCYTES, Strain/Indicator: THY INCORP, Metabolic Activation: NONE): active; positive

CNC[C@H](O)[C@@H](O)[C@H](O)[C@H](O)CO.CNC[C@H](O)[C@@H](O)[C@H](O)[C@H](O)CO.O=C([O-])CN(CCN(CC(=O)[O-])CC(=O)[O-])CCN(CC(=O)[O-])[C@H](COCc1ccccc1)C(=O)[O-].[Gd+3].[H+].[H+]
mutagenic call [2]: inactive; negative | mutagenic call (Test System: AMES SALMONELLA TYPHIMURIUM, Strain/Indicator: TA98, Metabolic Activation: RAT LIVER S-9, AROCLOR 1254 (10%), Method: STANDARD PLATE): inactive; negative | mutagenic call [3]: inactive; negative | mutagenic call (Test System: AMES SALMONELLA TYPHIMURIUM, Strain/Indicator: TA100, Metabolic Activation: RAT LIVER S-9, AROCLOR 1254 (10%), Method: STANDARD PLATE): inactive; negative | mutagenic call (Test System: AMES SALMONELLA TYPHIMURIUM, Strain/Indicator: TA1535, Metabolic Activation: NONE, Method: STANDARD PLATE): inactive; negative | mutagenic call (Test System: AMES SALMONELLA TYPHIMURIUM, Strain/Indicator: TA1535, Metabolic Activation: RAT LIVER S-9, AROCLOR 1254 (10%), Method: STANDARD PLATE): inactive; negative | mutagenic call (Test System: AMES SALMONELLA TYPHIMURIUM, Strain/Indicator: TA1537, Metabolic Activation: NONE, Method: STANDARD PLATE): inactive; negative | mutagenic call (Test System: AMES SALMONELLA TYPHIMURIUM, Strain/Indicator: TA1537, Metabolic Activation: RAT LIVER S-9, AROCLOR 1254 (10%), Method: STANDARD PLATE): inactive; negative | mutagenic call [4]: inactive; negative | mutagenic call (Test System: AMES SALMONELLA TYPHIMURIUM, Strain/Indicator: TA1538, Metabolic Activation: RAT LIVER S-9, AROCLOR 1254 (10%), Method: STANDARD PLATE): inactive; negative | mutagenic call (Test System: ESCHERICHIA COLI, Strain/Indicator: WP2 UVR A-, Metabolic Activation: NONE, Method: STANDARD PLATE): inactive; negative | mutagenic call (Test System: ESCHERICHIA COLI, Strain/Indicator: WP2 UVR A-, Metabolic Activation: RAT LIVER S-9, AROCLOR 1254 (10%), Method: STANDARD PLATE): inactive; negative

O=[N+]([O-])c1cc(CCl)cc([N+](=O)[O-])c1
mutagenic call [1]: active; positive | mutagenic call (Test System: AMES SALMONELLA TYPHIMURIUM, Strain/Indicator: TA98, Metabolic Activation: RAT, LIVER, S-9, KANECHLOR 500, Method: PREINCUBATION): active; positive | mutagenic call [5]: active; positive | mutagenic call (Test System: AMES SALMONELLA TYPHIMURIUM, Strain/Indicator: TA100, Metabolic Activation: RAT, LIVER, S-9, KANECHLOR 500, Method: PREINCUBATION): active; positive

O=C(O)/C=C/C=C/CO
mutagenic call (Test System: CHINESE HAMSTER V-79, Strain/Indicator: V-79 (HGPRT)/8-AZAGUANINE, Metabolic Activation: NONE): inactive; negative

CNP1(NC)=NP(NC)(NC)=NP(NC)(NC)=N1
mutagenic call [2]: inactive; negative | mutagenic call (Test System: AMES SALMONELLA TYPHIMURIUM, Strain/Indicator: TA98, Metabolic Activation: RAT, LIVER, S-9, AROCLOR 1254, Method: STANDARD PLATE): inactive; negative | mutagenic call [3]: inactive; negative | mutagenic call (Test System: AMES SALMONELLA TYPHIMURIUM, Strain/Indicator: TA100, Metabolic Activation: RAT, LIVER, S-9, AROCLOR 1254, Method: STANDARD PLATE): inactive; negative
